Counter-ions that a name gives are not always drawn.
How the values were obtained:
Bj-5ta = assay: MTT assay, BJ-5ta non-cancerous fibroblasts; format: cell-based, human; conditions: non-cancerous dermal fibroblasts, 48 h incubation
Protocol: (§1) The non-cancerous cell line MCF-10A (human epithelial breast cells) was cultured in a DMEM F12 medium supplemented with 10% FBS (Invitrogen, Carlsbad, CA, USA), 1× HyClone™ Antibiotic/Antimycotic Solution (GE Healthcare, Piscataway, NJ, USA), insulin, hEGF, and hydrocortisone. The BJ-5ta cells (human dermal fibroblasts) were cultured in a DMEM-M199 4:1 medium mixture, supplemented with 10% FBS and hygromycin B (0.01 mg/mL). The cells were maintained under standard conditions with an atmosphere containing 5% CO2 at 37 °C. Cell viability, estimated by trypan blue exclusion, was consistently greater than 95% before each experiment.
(§2) To evaluate the IC50 (half-maximal inhibitory concentration) and confirm the antiproliferative activity of the tested substances, we employed the colorimetric MTT assay (3-(4,5-dimethylthiazol-2-yl)-2,5-diphenyltetrazolium bromide) (Sigma-Aldrich Chemie, Steinheim, Germany). The cell lines were seeded in 96-well plates at a density of 5 × 10^3 to 10 × 10^3 cells per well. After 24 h, the tested substances, dissolved in the cultivation medium, were added to the cells at final concentrations of 5, 10, 20, and 50 µmol/L. The cells were then incubated for 48 h under standard cultivation conditions. Following the incubation period, MTT was added to each well. The MTT was metabolized by the cells into insoluble formazan crystals, which were subsequently dissolved by adding 100 µL of 10% SDS. After another 24 h, the absorbance was measured at a wavelength of 540 nm using the automated Cytation™ 3 Cell Imaging Multi-Mode Reader (Biotek, Winooski, VT, USA). The experiments were performed in at least three independent repetitions. IC50 values were calculated using a nonlinear regression method.

A549 = assay: MTT assay, A549; format: cell-based, human; conditions: lung adenocarcinoma, 48 h incubation
Protocol: (§3) The human cancer cell lines HeLa (cervical adenocarcinoma), HCT116 (colorectal adenocarcinoma), A2780 (human ovarian adenocarcinoma), A2780cis (human ovarian adenocarcinoma cisplatin-resistant), Jurkat (acute T-lymphoblastic leukemia), and Hep G2 (hepatocellular carcinoma) were cultured in an RPMI 1640 growth medium (Biosera, Kansas City, MO, USA). The cancer cell lines MDA-MB-231 (triple-negative breast adenocarcinoma), A2058 (human melanoma), U87 (human glioblastoma), PATU 8902 (pancreas adenocarcinoma), and A549 (human lung adenocarcinoma) were cultured in a DMEM medium (Biosera, Kansas City, MO, USA). The media were supplemented with 10% fetal bovine serum (FBS) (Invitrogen, Carlsbad, CA, USA) and 1× HyClone™ Antibiotic/Antimycotic Solution (GE Healthcare, Piscataway, NJ, USA).
as §2

Hep G2 = assay: MTT assay, Hep G2; format: cell-based, human; conditions: hepatocellular carcinoma, 48 h incubation
Protocol: as §3, §2

HeLa = assay: MTT assay, HeLa; format: cell-based, human; conditions: cervical adenocarcinoma, 48 h incubation
Protocol: as §3, §2

HCT116 = assay: MTT assay, HCT116; format: cell-based, human; conditions: colorectal adenocarcinoma, 48 h incubation
Protocol: as §3, §2

PATU = assay: MTT assay, PATU 8902; format: cell-based, human; conditions: pancreas adenocarcinoma, 48 h incubation
Protocol: as §3, §2

A2058 = assay: MTT assay, A2058; format: cell-based; conditions: human melanoma, 48 h incubation
Protocol: as §3, §2

MCF-10A = assay: MTT assay, MCF-10A non-cancerous cells; format: cell-based, human; conditions: non-cancerous epithelial breast cells, 48 h incubation
Protocol: as §1, §2

A2780 = assay: MTT assay, A2780; format: cell-based, human; conditions: ovarian adenocarcinoma, 48 h incubation
Protocol: as §3, §2

Compound	IC50 (A549) [µM]	IC50 (HeLa) [µM]	IC50 (HCT116) [µM]	IC50 (A2780) [µM]	IC50 (Bj-5ta) [µM]	IC50 (Hep G2) [µM]	IC50 (PATU) [µM]	IC50 (A2058) [µM]	IC50 (MCF-10A) [µM]
COc1cc(NC(=O)COc2ccc(/C=C3\SC(=O)N(Cc4c5ccccc5nc5ccccc45)C3=O)cc2)cc(OC)c1 [7b·2HCl, 2-(4-{[(5Z)-3-[(Acridin-9-yl)methyl]-2,4-dioxo-1,3-thiazolidin-5-ylidene]methyl}phenoxy)-N-(3,5-dimethoxyphenyl)acetamide dihydrochloride]	21.9 ± 3.35	6.11 ± 1.2	17.4 ± 1.74	> 50	34.5 ± 5.5	> 50	> 50	> 50	11.3 ± 2.05
COc1cc(/C=C2\SC(=O)N(Cc3cccc4cc5ccccc5nc34)C2=O)ccc1OCC(=O)Nc1cccc(C(F)(F)F)c1 [13f·HCl, 2-(4-{[(5Z)-3-[(Acridin-4-yl)methyl]-2,4-dioxo-1,3-thiazolidin-5-ylidene]methyl}-2-methoxyphenoxy)-N-[3-(trifluoromethyl)phenyl]acetamide hydrochloride]	38.2 ± 7.35	12.3 ± 4.9	14.3 ± 3.2	–	> 50	> 50	43.7 ± 5.8	> 50	–
COc1cc(/C=C2\SC(=O)N(Cc3c4ccccc4nc4ccccc34)C2=O)ccc1OCC(=O)Nc1cccc(C(F)(F)F)c1 [12f·2HCl, 2-(4-{[(5Z)-3-[(Acridin-9-yl)methyl]-2,4-dioxo-1,3-thiazolidin-5-ylidene]methyl}-2-methoxyphenoxy)-N-[3-(trifluoromethyl)phenyl]acetamide dihydrochloride]	> 50	19.4 ± 6.48	4.98 ± 2.9	> 50	> 50	> 50	> 50	> 50	> 50
O=C(COc1ccc(/C=C2\SC(=O)N(Cc3cccc4cc5ccccc5nc34)C2=O)cc1)Nc1ccccc1C(F)(F)F [8e·HCl, 2-(4-{[(5Z)-3-[(Acridin-4-yl)methyl]-2,4-dioxo-1,3-thiazolidin-5-ylidene]methyl}phenoxy)-N-[2-(trifluoromethyl)phenyl]acetamid hydrochloride]	> 50	> 50	> 50	–	> 50	> 50	> 50	> 50	–
COc1cc(/C=C2\SC(=O)N(Cc3c4ccccc4nc4ccccc34)C2=O)ccc1OCC(=O)Nc1cc(OC)c(OC)c(OC)c1 [12c·2HCl, 2-(4-{[(5Z)-3-[(Acridin-9-yl)methyl]-2,4-dioxo-1,3-thiazolidin-5-ylidene]methyl}-2-methoxyphenoxy)-N-(3,4,5-trimethoxyphenyl)acetamide dihydrochloride]	> 50	20.2 ± 5.4	5.4 ± 2.4	> 50	> 50	> 50	> 50	> 50	> 50
O=C(COc1ccc(/C=C2\SC(=O)N(Cc3cccc4cc5ccccc5nc34)C2=O)cc1)Nc1ccccc1 [8a·HCl, 2-(4-{[(5Z)-3-[(Acridin-4-yl)methyl]-2,4-dioxo-1,3-thiazolidin-5-ylidene]methyl}phenoxy)-N-phenylacetamide hydrochloride]	> 50	42.6 ± 0.75	> 50	–	> 50	> 50	> 50	> 50	–

Further lines, with some results ahead:

IC50 (A549) [µM]	IC50 (HeLa) [µM]	IC50 (HCT116) [µM]	IC50 (A2780) [µM]	Compound	IC50 (Bj-5ta) [µM]	IC50 (Hep G2) [µM]	IC50 (PATU) [µM]	IC50 (A2058) [µM]	IC50 (MCF-10A) [µM]
> 50	> 50	> 50	–	O=C(COc1ccc(/C=C2\SC(=O)N(Cc3cccc4cc5ccccc5nc34)C2=O)cc1)Nc1ccc([N+](=O)[O-])cc1 [8d·HCl, 2-(4-{[(5Z)-3-[(Acridin-4-yl)methyl]-2,4-dioxo-1,3-thiazolidin-5-ylidene]methyl}phenoxy)-N-(4-nitrophenyl)acetamide hydrochloride]	> 50	> 50	> 50	> 50	–
> 50	34.7 ± 6.4	> 50	–	COc1cc(/C=C2\SC(=O)N(Cc3cccc4cc5ccccc5nc34)C2=O)ccc1OCC(=O)Nc1cc(C(F)(F)F)cc(C(F)(F)F)c1 [13g·HCl, 2-(4-{[(5Z)-3-[(Acridin-4-yl)methyl]-2,4-dioxo-1,3-thiazolidin-5-ylidene]methyl}-2-methoxyphenoxy)-N-[3,5-bis(trifluoromethyl)phenyl]acetamide hydrochloride]	> 50	> 50	> 50	> 50	–
42.8 ± 5.4	13.7 ± 4.5	14.5 ± 3.4	–	COc1cc(/C=C2\SC(=O)N(Cc3cccc4cc5ccccc5nc34)C2=O)ccc1OCC(=O)Nc1ccccc1C(F)(F)F [13e·HCl, 2-(4-{[(5Z)-3-[(Acridin-4-yl)methyl]-2,4-dioxo-1,3-thiazolidin-5-ylidene]methyl}-2-methoxyphenoxy)-N-[2-(trifluoromethyl)phenyl]acetamide hydrochloride]	> 50	> 50	39.8 ± 7.1	> 50	–
> 50	21.4 ± 5.8	16.9 ± 1.75	> 50	COc1cc(NC(=O)COc2ccc(/C=C3\SC(=O)N(Cc4c5ccccc5nc5ccccc45)C3=O)cc2)cc(OC)c1OC [7c·2HCl, 2-(4-{[(5Z)-3-[(Acridin-9-yl)methyl]-2,4-dioxo-1,3-thiazolidin-5-ylidene]methyl}phenoxy)-N-(3,4,5-trimethoxyphenyl)acetamide dihydrochloride]	> 50	> 50	> 50	> 50	> 50
> 50	> 50	> 50	–	COc1cc(/C=C2\SC(=O)N(Cc3cccc4cc5ccccc5nc34)C2=O)ccc1OCC(=O)Nc1ccc([N+](=O)[O-])cc1 [13d·HCl, 2-(4-{[(5Z)-3-[(Acridin-4-yl)methyl]-2,4-dioxo-1,3-thiazolidin-5-ylidene]methyl}-2-methoxyphenoxy)-N-(4-nitrophenyl)acetamide hydrochloride]	> 50	> 50	> 50	> 50	–
> 50	> 50	> 50	–	COc1cc(/C=C2\SC(=O)N(Cc3cccc4cc5ccccc5nc34)C2=O)ccc1OCC(=O)Nc1ccccc1 [13a·HCl, 2-(4-{[(5Z)-3-[(Acridin-4-yl)methyl]-2,4-dioxo-1,3-thiazolidin-5-ylidene]methyl}-2-methoxyphenoxy)-N-phenylacetamide hydrochloride]	> 50	> 50	> 50	> 50	–
> 50	45.5 ± 2.9	> 50	–	COc1cc(NC(=O)COc2ccc(/C=C3\SC(=O)N(Cc4cccc5cc6ccccc6nc45)C3=O)cc2OC)cc(OC)c1 [13b·HCl, 2-(4-{[(5Z)-3-[(Acridin-4-yl)methyl]-2,4-dioxo-1,3-thiazolidin-5-ylidene]methyl}-2-methoxyphenoxy)-N-(3,5-dimethoxyphenyl)acetamide hydrochloride]	> 50	> 50	> 50	> 50	–
> 50	> 50	> 50	–	O=C(COc1ccc(/C=C2\SC(=O)N(Cc3cccc4cc5ccccc5nc34)C2=O)cc1)Nc1cccc(C(F)(F)F)c1 [8f·HCl, 2-(4-{[(5Z)-3-[(Acridin-4-yl)methyl]-2,4-dioxo-1,3-thiazolidin-5-ylidene]methyl}phenoxy)-N-[3-(trifluoromethyl)phenyl]acetamide hydrochloride]	> 50	> 50	> 50	> 50	–

— article PMC11280325, “Design, Synthesis, and Characterization of Novel Thiazolidine-2,4-Dione-Acridine Hybrids as Antitumor Agents” (Molecules, 2024)
